{"source": "patent US20170273935A1", "about": "“CINEOLE-CONTAINING COMPOSITION FOR NASAL APPLICATION” (Maria Clementine Martin Klosterfrau Vertriebsgesellschaft …, priority 2014, published 2017)", "origin": "cited, not measured here"}
{"compound": "CC12CCC(CC1)C(C)(C)O2", "note": "[1,8-cineole, 1,3,3-trimethyl-2-oxabicyclo[2.2.2]octane]", "values": [{"measurement": "solubility in water", "result": "insoluble in water"}]}
